Assay results as given in patent US20100151053A1, “SYSTEM AND METHOD FOR THE DELIVERY OF A SANITIZING FOAM” (GREEN SOURCE AUTOMATED, LLC, priority 2008, published 2010).

Assay: volumes of gas dissolved in teat dip solution under pressure
Assay type: physicochemical
Conditions: standard room temperature and 100 psi pressure; TeatKote 10/111 dip solution
Excerpt: When a vessel containing the dip solution is pressurized, the gas mixture pressure causes the gasses to dissolve into the dip and an amount of energy caused by the pressurization acts upon the system. The system is allowed to come to equilibrium and the temperature is controlled such that any temperature rise caused by this energy introduction is removed. Henry's law states: “the amount of any given gas that will dissolve in a liquid at a given temperature is a function of the partial pressure of the gas that is in contact with the liquid and the solubility coefficient of the gas in the particular liquid.” In other words, the amount of gas that can be dissolved into a liquid depends on the temperature, the pressure, and how well the particular liquid absorbs gases. With that being said, in order to make a consistent application of the preparation as a foam on the teats of a cow, a consistent pressure and temperature is beneficial. A recirculation loop from the pressurized tank to the nozzle and back to the tank can, for example, be employed to make sure the temperature and dissolved gas content remain consistent with that of the dip mixture in the tank in an embodiment of the invention.
In various embodiments of the invention, a pressure vessel is used to hold the dip solution and expose it to the propellant/diffused gas or gasses. […]

volumes dissolved, gas versus dip solution | SMILES
approximately 4.5 volumes | O=C=O [CO2, Carbon dioxide]
approximately four | [N-]=[N+]=O [Example N2O, nitrous oxide]
